Patent US6384080B1, “Anthranilic acid derivatives as inhibitors of the cGMP-phosphodiesterase” (Fujisawa Pharmaceutical Co., Ltd., priority 1998, dated 2002)

Columns and labels:
[1] = tested on: Male beagle; test: Duration of detumescence (T75) after cavernous nerve electrical stimulation in anesthetized beagle; format: in vivo; details: 0.1 mg/kg, i.v., cavernous nerve stimulation 7 Hz, 10 V, T75 = time from cessation of stimulation to 75% reduction of intracavernous pressure
Procedure: (c) Male beagle weighing 8.0-12.0 kg were anesthetized with pentobarbital sodium (35 mg/kg, i.v.). After tracheotomy, the animal was artificially ventilated using a volume-cycled ventilator. The femoral artery was cannulated for continuous blood pressure and heart rate monitoring. The femoral vein was cannulated for maintenance of anesthesia and administration of tested compound.
Either the left or right cavernous nerve was exposed posterolaterally to the prostate and a cuff electrode was placed around the nerve for electrical stimulation. A 21-gauge butterfly needle was placed in the corpus cavernousum and connected to a pressure transducer for intracavernous pressure. After a period of stabilization of all parameters, erection was induced by cavernous nerve electrically stimulation (7 Hz, 10 V) and the following was measured: the duration of detumescence (time (T75) from cessation of stimulation to 75% reduction of intracavernous pressure). The test compounds, i.e., N-(3,4-dimethoxybenzyl)-2-(cis-4-hydroxycyclohexylamino)-5-nitrobenzamide and (R)-N-(3,4-dimethoxybenzyl)-2-(2-hydroxy-1-methyl-ethylamino)-5-nitrobenzamide were each dissolved in 50% PEG400.

[2] = tested on: SD rat; format: in vivo; details: 32 mg/kg once a day for 14 consecutive days
Procedure: Toxicities of Compound (I)
Test on the toxicity by repetitive oral administration of the compounds, i.e., N-(3,4-dimethoxybenzyl)-2-(cis-4-hydroxycyclohexylamino)-5-nitrobenzamide and (R)-N-(3,4-dimethoxybenzyl)-2-(2-hydroxy-1-methylethylamino)-5-nitrobenzamide which were selected as representative compounds of this invention, in SD rat was conducted.

[3] = tested on: isolated rat corpora cavernosa; test: Nitroprusside-induced relaxation in isolated rat corpora cavernosa; parameters: species or system SD rat; details: in the presence of the test compound (5×10^−8 M); strip constricted by 0.1 mM norepinephrine; control preparation 20%
Procedure: (a) Effect of Test Compound on Nitroprusside or Ach-induced Relaxation in Isolated Rat Corpora Cavernosa.
Male SD rats were anesthetized with sodium pentobarbital 50 mg/kg intraperitoneally, and the corpora cavernosa was excised. The tunica albuginea was dissected according to the methods described by Italiano et al. (Pharmacological Research, 30, No. 4, 1994) and used for in vitro pharmacological study. The erectile tissue strip was placed in a 25 ml organ bath containing Krebs-Ringer solution. The bath was maintained at 37° C. and bubbled with 95% O2 and 5% CO2. The strip was stretched with a resting force of 0.25 g, and isometric contraction were recorded via force development transducer on a recorder.
The strip was equilibrated in the Krebs-Ringer solution for about 60 minutes, and preconstructed by 0.1 mM norepinephrine to ascertain the responsibility of each preparation. The strip was washed several times, and then constricted by 0.1 mM norepinephrine. After getting stable constrictile response to norepinephrine, the first dose-response curve for sodium nitroprusside or Ach(acetylcholine) was obtained. After washing a few times for 60 minutes, the strip was constricted by norepinephrine again, and the second dose-response curve for sodium nitroprusside or Ach was obtained. […]

[4] = tested on: rabbit corpora cavernosa; test: Relaxation elicited by electrical field stimulation in rabbit corpora cavernosa; details: at 5×10^−8 M
Procedure: (b) Effect of test compounds on the relaxation elicited by electrical field stimulation in rabbit corpora cavernosa.
The rabbit erectile tissue strip prepared according to the method described by Italiano et al. (Pharmacological Research, 30, No 4, 1994) was placed 25 ml organ bath containing Krebs-Ringer solution. The bath was maintained at 37° C. and bubbled with 95% O2 and 5% CO2. The solution also contained atropine (1 μM) and guanethidine (50 μM). The erectile tissue strip was stretched with a resting force of 0.25 g, and isometric contraction were recorded via force development transducer on a recorder. The bipolar platinum electrode connected to the electric stimulator was placed around the strip.
The strip was equilibrated in the Krebs-Ringer solution for about 60 minutes and preconstricted by 0.1 mM norepinephrine to ascertain the responsibility of each preparation. The strip was washed several times, and then constricted by 0.1 mM norepinephrine. After getting stable contractile response to norepinephrine, the first electrical field stimulation (1 to 30 Hz, 20V, 0.5 msec duration, 90 sec interval) was delivered. 30 minutes after adding the tested compound, the second electrical field stimulation was delivered. […]

With `COc1ccc(CNC(=O)c2cc([N+](=O)[O-])ccc2N[C@H](C)CO)cc1OC` [(R)-N-(3,4-Dimethoxybenzyl)-2-(2-hydroxy-(1-methylethylamino)-5-nitrobenzamide] the “mean of prolongation of T75” value [1] was 44 s, the “The dead (toxicity by repetitive oral administration)” value [2] was “could not be observed” and the “Relaxant response elicited by 10 μM nitroprusside” value [3] was 32%. For the same molecule, the “relaxation of corpora cavernosa elicited by electrical field stimulation (effect in words)” value [4] was “potentiated”.
In the case of `COc1ccc(CNC(=O)c2cc([N+](=O)[O-])ccc2N[C@H]2CC[C@@H](O)CC2)cc1OC` [N-(3,4-Dimethoxybenzyl)-2-(cis-4-hydroxycyclohexylamino)-5-nitrobenzamide], the “mean of prolongation of T75” value [1] is reported as 52 s, the “The dead (toxicity by repetitive oral administration)” value [2] is reported as “could not be observed” and the “relaxation of corpora cavernosa elicited by electrical field stimulation (effect in words)” value [4] is reported as “potentiated”.
